# Laboratory results taken from PubChem BioAssay AID248 (DTP/NCI, 2004).
# Inconclusive results and toxic doses are left out.
# System: L1210 leukemia ip in BDF1 mice, survival T/C
# Test: NCI In Vivo Anticancer Drug Screen. Data for tumor model L1210 Leukemia (intraperitoneal) in B6D2F1 (BDF1) mice
# Details: endpoint: mean survival time, higher = longer survival
# Procedure, shortened: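 Antitumor effect is assessed in tumor-bearing animals. Survival in the compound arm is compared with a vehicle-dosed control arm and expressed as their quotient.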
# [1] = dose: 100.0 mg/kg/injection, schedule: Q04DX002 (ip), vehicle: Klucel (hydroxypropylcellulose) (HPC)
# [2] = dose: 100.0 mg/kg/injection, schedule: Q04DX003 (ip), vehicle: saline with Tween-80
# [3] = dose: 200.0 mg/kg/injection, schedule: Q04DX003 (ip), vehicle: saline with Tween-80
# [4] = dose: 100.0 mg/kg/injection, schedule: Q01DX001 (ip), vehicle: saline
# [5] = dose: 200.0 mg/kg/injection, schedule: Q01DX001 (ip), vehicle: saline
# [6] = dose: 400.0 mg/kg/injection, schedule: Q01DX001 (ip), vehicle: saline
# [7] = dose: 150.0 mg/kg/injection, schedule: Q01DX001 (ip), vehicle: saline
# [8] = dose: 300.0 mg/kg/injection, schedule: Q01DX001 (ip), vehicle: saline
# [9] = dose: 100.0 mg/kg/injection, schedule: Q01DX009 (ip), vehicle: saline
# [10] = dose: 200.0 mg/kg/injection, schedule: Q01DX009 (ip), vehicle: saline
# [11] = dose: 100.0 mg/kg/injection, schedule: Q04DX003 (ip), vehicle: Klucel (hydroxypropylcellulose) (HPC)
# [12] = dose: 200.0 mg/kg/injection, schedule: Q04DX003 (ip), vehicle: Klucel (hydroxypropylcellulose) (HPC)
# [13] = dose: 400.0 mg/kg/injection, schedule: Q04DX003 (ip), vehicle: Klucel (hydroxypropylcellulose) (HPC)
# [14] = dose: 100.0 mg/kg/injection, schedule: Q01DX009 (ip), vehicle: Klucel (hydroxypropylcellulose) (HPC)
# [15] = dose: 200.0 mg/kg/injection, schedule: Q01DX009 (ip), vehicle: Klucel (hydroxypropylcellulose) (HPC)
smiles,measurement,setting,value
CC/C=N\N=C(N)N,T/C,"dose: 15.0 mg/kg/injection, schedule: Q01DX Z (ip), vehicle: saline",101 % of control
same,T/C,"dose: 30.0 mg/kg/injection, schedule: Q01DX Z (ip), vehicle: saline",106 % of control
same,T/C,"dose: 60.0 mg/kg/injection, schedule: Q01DX Z (ip), vehicle: saline",100 % of control
same,T/C,"dose: 120.0 mg/kg/injection, schedule: Q01DX010 (oral), vehicle: saline",94 % of control
same,T/C,"dose: 120.0 mg/kg/injection, schedule: Q01DX Z (ip), vehicle: saline",100 % of control
same,T/C,"dose: 240.0 mg/kg/injection, schedule: Q01DX010 (oral), vehicle: saline",98 % of control
same,T/C,"dose: 240.0 mg/kg/injection, schedule: Q01DX Z (ip), vehicle: saline",95 % of control
O=S(=O)(C#Cc1ccccc1)c1ccccc1,T/C,[1],89 % of control
CCOC(=O)CCC(C(=O)OCC)N(CC(=O)OCC)C(=O)c1ccccc1 (configuration not stated),T/C,[2],102 % of control
same,T/C,[3],98 % of control
same,T/C,"dose: 400.0 mg/kg/injection, schedule: Q04DX003 (ip), vehicle: saline with Tween-80",96 % of control
CC(C)(CCCOc1ccccc1)NC(=O)c1ccccc1,T/C,"dose: 50.0 mg/kg/injection, schedule: Q01DX001 (ip), vehicle: saline",100 % of control
same,T/C,[4],100 % of control
same,T/C,[5],103 % of control
same,T/C,[6],102 % of control
COC(=O)CCCN1CC2C=C(C#N)C1C(C(=O)OC)C2 (configuration not stated),T/C,[7],93 % of control
same,T/C,[8],93 % of control
Cn1cnc([N+](=O)[O-])c1Sc1ncnc2c1ncn2C1OC(CO)C(O)C1O (configuration not stated),T/C,"dose: 18.0 mg/kg/injection, schedule: Q01DX009 (ip), vehicle: saline",100 % of control
same,T/C,"dose: 35.0 mg/kg/injection, schedule: Q01DX009 (ip), vehicle: saline",108 % of control
same,T/C,"dose: 75.0 mg/kg/injection, schedule: Q04DX003 (ip), vehicle: Klucel (hydroxypropylcellulose) (HPC)",121 % of control
same,T/C,"dose: 110.0 mg/kg/injection, schedule: Q01DX009 (ip), vehicle: saline",152 % of control
same,T/C,"dose: 165.0 mg/kg/injection, schedule: Q01DX009 (ip), vehicle: saline",150 % of control
same,T/C,"dose: 176.0 mg/kg/injection, schedule: Q01DX009 (ip), vehicle: other",164 % of control
same,T/C,"dose: 250.0 mg/kg/injection, schedule: Q01DX009 (ip), vehicle: saline",154 % of control
same,T/C,"dose: 300.0 mg/kg/injection, schedule: Q04DX003 (ip), vehicle: Klucel (hydroxypropylcellulose) (HPC)",156 % of control
COC(=O)C1CC(OC(C)=O)C(C(N)=O)C1 (configuration not stated),T/C,[9],101 % of control
same,T/C,[10],111 % of control
same,T/C,"dose: 400.0 mg/kg/injection, schedule: Q01DX009 (ip), vehicle: saline",101 % of control
N#CCCC#N (tested in a mixture with another compound),T/C,[2],96 % of control
same,T/C,[3],102 % of control
Cc1cccc(Cl)c1NC(=O)NCCCl,T/C,[11],94 % of control
same,T/C,[12],92 % of control
same,T/C,[13],94 % of control
N#Cc1nc(CSc2ccc(Cl)cc2)cnc1N,T/C,"dose: 100.0 mg/kg/injection, schedule: Q01DX001 (ip), vehicle: Klucel (hydroxypropylcellulose) (HPC)",95 % of control
same,T/C,"dose: 200.0 mg/kg/injection, schedule: Q01DX001 (ip), vehicle: Klucel (hydroxypropylcellulose) (HPC)",92 % of control
same,T/C,"dose: 400.0 mg/kg/injection, schedule: Q01DX001 (ip), vehicle: Klucel (hydroxypropylcellulose) (HPC)",89 % of control
O=C(O)CCc1c2ccc(=O)cc-2oc2cc(O)ccc12,T/C,[11],91 % of control
same,T/C,[12],91 % of control
same,T/C,[13],92 % of control
CC1(C)C2CCC([CH2][Hg][Cl])C1C2 (configuration not stated),T/C,"dose: 6.25 mg/kg/injection, schedule: Q01DX009 (ip), vehicle: saline",93 % of control
same,T/C,"dose: 6.25 mg/kg/injection, schedule: Q04DX003 (ip), vehicle: other",103 % of control
same,T/C,"dose: 12.5 mg/kg/injection, schedule: Q01DX009 (ip), vehicle: saline",91 % of control
same,T/C,"dose: 12.5 mg/kg/injection, schedule: Q04DX003 (ip), vehicle: other",103 % of control
same,T/C,"dose: 20.0 mg/kg/injection, schedule: Q01DX001 (ip), vehicle: Klucel (hydroxypropylcellulose) (HPC)",102 % of control
same,T/C,"dose: 25.0 mg/kg/injection, schedule: Q01DX009 (ip), vehicle: saline",94 % of control
same,T/C,"dose: 25.0 mg/kg/injection, schedule: Q04DX003 (ip), vehicle: other",106 % of control
CCCCC(C#N)C1CC=CC(C(=O)O)C1 (configuration not stated),T/C,"dose: 100.0 mg/kg/injection, schedule: Q01DX001 (ip), vehicle: carboxymethylcellulose (CMC)",101 % of control
same,T/C,"dose: 200.0 mg/kg/injection, schedule: Q01DX001 (ip), vehicle: carboxymethylcellulose (CMC)",92 % of control
same,T/C,"dose: 400.0 mg/kg/injection, schedule: Q01DX001 (ip), vehicle: carboxymethylcellulose (CMC)",97 % of control
C[Si](C)(C)OC(C(F)(F)F)C(F)(F)F,T/C,"dose: 100.0 mg/kg/injection, schedule: Q01DX001 (ip), vehicle: steriod suspending solution",98 % of control
same,T/C,"dose: 200.0 mg/kg/injection, schedule: Q01DX001 (ip), vehicle: steriod suspending solution",96 % of control
same,T/C,"dose: 400.0 mg/kg/injection, schedule: Q01DX001 (ip), vehicle: steriod suspending solution",86 % of control
Cc1cc(C)c(S(=O)(=O)O)cc1C,T/C,"dose: 50.0 mg/kg/injection, schedule: Q01DX009 (ip), vehicle: saline",92 % of control
same,T/C,[9],92 % of control
same,T/C,"dose: 100.0 mg/kg/injection, schedule: Q04DX003 (ip), vehicle: saline",98 % of control
same,T/C,[10],88 % of control
CCCN1CCN(CCCO)CC1C (configuration not stated),T/C,[4],103 % of control
same,T/C,[5],105 % of control
same,T/C,[6],103 % of control
O=Cc1cc(Cl)ccc1O,T/C,[14],108 % of control
same,T/C,[15],102 % of control
CCCC(C)C1(CCC)C(=O)NC(=S)NC1=O (configuration not stated),T/C,"dose: 75.0 mg/kg/injection, schedule: Q01DX001 (ip), vehicle: saline",94 % of control
same,T/C,[7],98 % of control
same,T/C,[8],92 % of control
c1ccc([S][Pb]([c]2ccccc2)([c]2ccccc2)[c]2ccccc2)cc1,T/C,"dose: 8.0 mg/kg/injection, schedule: Q04DX003 (ip), vehicle: saline",111 % of control
same,T/C,"dose: 16.0 mg/kg/injection, schedule: Q04DX003 (ip), vehicle: saline",103 % of control
same,T/C,"dose: 32.0 mg/kg/injection, schedule: Q04DX003 (ip), vehicle: saline",122 % of control
O=C(NC(CSC(=O)OCc1ccccc1)C(=O)Oc1ccc([N+](=O)[O-])cc1)OCc1ccccc1 (configuration not stated),T/C,[14],104 % of control
same,T/C,[11],97 % of control
same,T/C,[15],114 % of control
same,T/C,[12],100 % of control
same,T/C,"dose: 400.0 mg/kg/injection, schedule: Q01DX009 (ip), vehicle: Klucel (hydroxypropylcellulose) (HPC)",109 % of control
same,T/C,[13],103 % of control
Cn1nc(C(=O)O)c(=O)[nH]c1=S,T/C,"dose: 100.0 mg/kg/injection, schedule: Q01DX Z (ip), vehicle: methylcellulose (MC)",97 % of control
same,T/C,"dose: 200.0 mg/kg/injection, schedule: Q01DX Z (ip), vehicle: methylcellulose (MC)",92 % of control
NC(=O)/C=C\C(=O)O (tested in a mixture with another compound),T/C,"dose: 31.25 mg/kg/injection, schedule: Q#A X Z (ip), vehicle: carboxymethylcellulose (CMC)",106 % of control
same,T/C,"dose: 62.5 mg/kg/injection, schedule: Q#A X Z (ip), vehicle: carboxymethylcellulose (CMC)",110 % of control
same,T/C,"dose: 125.0 mg/kg/injection, schedule: Q#A X Z (ip), vehicle: carboxymethylcellulose (CMC)",118 % of control
same,T/C,"dose: 250.0 mg/kg/injection, schedule: Q#A X Z (ip), vehicle: carboxymethylcellulose (CMC)",108 % of control
CCc1cc(C)cc(OC(=O)Nc2ccccc2)c1,T/C,"dose: 100.0 mg/kg/injection, schedule: Q01DX009 (ip), vehicle: saline with Tween-80",87 % of control
same,T/C,[2],93 % of control
same,T/C,"dose: 200.0 mg/kg/injection, schedule: Q01DX009 (ip), vehicle: saline with Tween-80",88 % of control
same,T/C,[3],93 % of control
same,T/C,"dose: 400.0 mg/kg/injection, schedule: Q01DX009 (ip), vehicle: saline with Tween-80",92 % of control
COc1cc(Cl)ccc1NC(=S)Nc1ccccc1,T/C,[1],97 % of control
same,T/C,"dose: 200.0 mg/kg/injection, schedule: Q04DX002 (ip), vehicle: Klucel (hydroxypropylcellulose) (HPC)",101 % of control
same,T/C,"dose: 400.0 mg/kg/injection, schedule: Q04DX002 (ip), vehicle: Klucel (hydroxypropylcellulose) (HPC)",97 % of control
